Patent publication US8273743B2, “Quinoxaline inhibitors of the hedgehog signalling” (Curis, Inc., priority 2004, dated 2012)
pIC50: −log10 of the molar value.

Each compound was assayed on hedgehog pathway signaling (10T1/2-GliLuc [s12] or HEPM-GliLuc [MZ24] Gli reporter cell lines) (assay: Hedgehog signalling inhibition assay (Gli-luciferase reporter gene assay)). Settings: average IC50; either mouse [s12] or human [MZ24] Gli reporter cell lines; with Sonic hedgehog-octyl conjugate, 24 hrs.
Type: cell-based
Protocol: Mouse Reporter Cell lines—10T1/2-GliLuc [s12] cells (derived from cell line C3H10T1/2 ATCC #CCL-226); Mouse Embryonic Fibroblasts); Growth Medium: Dulbecco's modified Eagles' Medium (DMEM) supplemented with 10% Fetal Bovine Serum (FBS), 10 units/mL penicillin, 100 ug/mL streptomycin, 2 mM glutamine, and 10 mM HEPES.
Human Reporter Cell lines—HEPM-GliLuc [MZ24]—cells (derived from HEPM, Human Embryonic Palatal Mesenchyme ATCC #CRL-1486); Growth Medium: Minimum Essential Medium (MEM; with Earle's salts) supplemented with 10-20% Fetal Bovine Serium (FBS), 10 units/mL penicillin, 100 ug/mL streptomycin, 2 mM glutamine, and 10 mM HEPES pH 7.2.
Sonic hedgehog—recombinant human SHh N-terminal octylated conjugate.
Microtiter Plates (MTPs)—For the Luciferase assay cells are plated in 96-well MTPs (White, Flat-bottom, Clear-View).
Luciferase-Assay Medium—DMEM supplemented with 0.5% FBS, 10 units/mL penicillin, 100 ug/mL streptomycin, 2 mM glutamine, and 10 mM HEPES pH 7.2.
PBS/Ca/Mg Mix—Phosphate Buffered Saline (PBS) supplemented with 0.5 mM CaCl2 and 1 mM MgCl2.
S12 and MZ24 cells genetically modified to contain a luciferase reporter gene driven by the hedgehog-responsive Gli promoter were maintained on tissue culture dishes in Growth Medium at 37° C. and 5% CO2. Cell cultures were passaged at sub-confluency at every 3-4 days. (1:20 to 1:40 for s12; 1:3 to 1:10 for MZ24). Cells were harvested and diluted in Growth Medium such that they could be plated in a microtitre plate at 10,000-20,000 cells (s12), or 20,000-30,000 cells (MZ24), per 100 ul, per well. Cells were further incubated for ˜24-48 hours at 37° C. and 5% CO2.
After ˜24-48 hour incubation the Growth Medium in the microtitre plates was replaced by Luciferase-Assay Medium (100 ul per well), with and without Sonic hedgehog-octyl conjugate, at 0.1-0.3 ug/ml (S12) or 0.5-1.0 ug/ml (MZ24), and test compounds. Cells were then further incubated for and additional 24 hrs.
Microtitre plates were then subjected to the luciferase reporter gene assay kit (LucLite™), with modifications to the manufacturer's procedure wherein medium was removed and the substrate was reconstituted with 1:1 PBS/Ca/Mg:lysis buffer instead of straight lysis buffer. In brief, the PBS/Ca/Mg was mixed 1:1 with lysis buffer and 10 mL were added to each substrate vial (of the 1000-assay kit). Then the assay media from the microtitre plate was discarded, and 100 ul of this substrate mix was added to each well. Plates were incubated at room temperature for 20-30 minutes and then the Relative Light Units (RLUS) representing the relative expression level of the luciferase reporter gene were determined with a Topcount reader (Packard) or an Analyst reader (Molecular Devices).
The following table 1 represents the average IC50 values for particular compounds tested according to the procedures above using either mouse [s12] or human [MZ24] Gli reporter cell lines indicating inhibition of hedgehog pathway signaling.

Structure (SMILES) | pIC50
Cc1nc(C(F)(F)F)ccc1C(=O)Nc1ccc(Cl)c(-c2cnc3c(C)cccc3n2)c1 [compound 47] | > 6.00
Cc1cc(C)c2nc(-c3cc(NC(=O)c4ccc(C(F)(F)F)nc4C)ccc3Cl)cnc2c1 [compound 48] | > 6.00
O=C(Nc1ccc(Cl)c(-c2cnc3ccccc3n2)c1)c1cccs1 [compound 38] | > 6.00
O=C(Nc1ccc(Cl)c(-c2cnc3ccccc3n2)c1)c1cccc2c1OCCO2 [compound 44] | > 6.00
CS(=O)(=O)c1ccc(C(=O)Nc2ccc(Cl)c(-c3cnc4ccccc4n3)c2)cc1 [compound 18] | > 6.00
Cc1nc(C(F)(F)F)ccc1C(=O)Nc1ccc(Cl)c(-c2cnc3cc(F)c(F)cc3n2)c1 [compound 41] | > 6.00
Cc1nc(C(F)(F)F)ccc1C(=O)Nc1ccc(Cl)c(-c2cnc3c(F)c(F)ccc3n2)c1 [compound 40] | > 6.00
O=C(Nc1ccc(Cl)c(-c2cnc3ccccc3n2)c1)c1ccc(Cl)nc1 [compound 36] | > 6.00
O=C(Nc1ccc(Cl)c(-c2cnc3ccccc3n2)c1)c1cccnc1 [compound 35] | > 6.00
COc1cc(OC)cc(C(=O)Nc2ccc(Cl)c(-c3cnc4ccc(C)c(C)c4n3)c2)c1 [compound 54] | > 6.00
O=C(Nc1ccc(Cl)c(-c2cnc3ccccc3n2)c1)c1cccc(Cl)c1 [compound 33] | > 6.00
Cc1nc(C(F)(F)F)ccc1C(=O)Nc1ccc(Cl)c(-c2cnc3cc(F)ccc3n2)c1 [compound 43] | > 6.00
O=C(Nc1ccc(Cl)c(-c2cnc3ccccc3n2)c1)c1ccc(Cl)nc1Cl [compound 15] | > 6.00
O=C(Nc1ccc(Cl)c(-c2cnc3ccccc3n2)c1)C1CC1 [compound 27] | > 6.00
O=C(Nc1ccc(Cl)c(-c2cnc3ccccc3n2)c1)c1cccnc1Cl [compound 37] | > 6.00
COc1cc(OC)cc(C(=O)Nc2ccc(Cl)c(-c3cnc4c(C)cccc4n3)c2)c1 [compound 46] | > 6.00
O=C(Nc1ccc(Cl)c(-c2cnc3ccccc3n2)c1)c1ccc2cc[nH]c2c1 [compound 19] | > 6.00
Cc1nc(C(F)(F)F)ccc1C(=O)Nc1ccc(Cl)c(-c2cnc3cccnc3n2)c1 [compound 55] | > 6.00
Cc1cc2ncc(-c3cc(NC(=O)c4ccc(C(F)(F)F)nc4C)ccc3Cl)nc2cc1C [compound 42] | > 6.00
Cc1cc(C(=O)Nc2ccc(Cl)c(-c3cnc4ccccc4n3)c2)c(C(F)(F)F)o1 [compound 31] | > 6.00
O=C(Nc1ccc(Cl)c(-c2cnc3ccccc3n2)c1)c1ccc(Cl)cc1 [compound 34] | > 6.00
Cc1ccc2ncc(-c3cc(NC(=O)c4ccc(C(F)(F)F)nc4C)ccc3Cl)nc2c1C [compound 45] | > 6.00
Cc1nc(C(F)(F)F)ccc1C(=O)Nc1ccc(Cl)c(-c2cnc3c(F)cc(F)cc3n2)c1 [compound 39] | > 6.00
Cc1ccsc1C(=O)Nc1ccc(Cl)c(-c2cnc3ccccc3n2)c1 [compound 7] | > 6.00
CC(C)CC(=O)Nc1ccc(Cl)c(-c2cnc3ccccc3n2)c1 [compound 56] | > 6.00
CS(=O)(=O)c1cccc(C(=O)Nc2ccc(Cl)c(-c3cnc4ccccc4n3)c2)c1 [compound 24] | > 6.00
O=C(Nc1ccc(Cl)c(-c2cnc3ccccc3n2)c1)c1cccnc1F [compound 6] | > 6.00
